US11932608B1, “4-((2-(2-(2-(4-hydroxyphenyl)-4,5-diphenyl-1H-imidazol-1-yl)acetyl)hydrazono)methyl)benzoic acid as an anticancer compound” (KING FAISAL UNIVERSITY, priority 2023, dated 2024)

Key:
A549/ATCC = assay: Percentage growth inhibition of in vitro subpanel tumor cell lines; assay type: cell-based; conditions: Homo sapiens, 0.01 mM, Non-Small Cell Lung Cancer, read-out: Percentage growth inhibition (GI %)
Procedure: (§1) The anticancer activity of 4-((2-(2-(2-(4-hydroxyphenyl)-4,5-diphenyl-1H-imidazol-1-yl)acetyl)hydrazono)methyl)benzoic acid was assessed against leukemia, non-small cell lung cancer, colon cancer, central nervous system (CNS) cancer, melanoma, ovarian cancer, renal cancer, prostate cancer, and breast cancer.
(§2) Percentage growth inhibition (GI %) of in vitro subpanel tumor cell lines at 0.01 mM concentration for compound 4-((2-(2-(2-(4-hydroxyphenyl)-4,5-diphenyl-1H-imidazol-1-yl)acetyl)hydrazono)methyl)benzoic acid (Labeled as AE21 in the table) can be seen in Table 1 below.

ACHN = assay: as above; assay type: cell-based; conditions: Homo sapiens, 0.01 mM, Renal Cancer, read-out: Percentage growth inhibition (GI %)
Procedure: as §1, §2

BT-549 = assay: as above; assay type: cell-based; conditions: Homo sapiens; 0.01 mM; BT-549, Breast Cancer; read-out: Percentage growth inhibition (GI %)
Procedure: as §1, §2

CAKI-1 = assay: as above; assay type: cell-based; conditions: Homo sapiens; 0.01 mM; CAKI-1, Renal Cancer; read-out: Percentage growth inhibition (GI %)
Procedure: as §1, §2

CCRF-CEM = assay: as above; assay type: cell-based; conditions: Homo sapiens, 0.01 mM, Leukemia, read-out: Percentage growth inhibition (GI %)
Procedure: as §1, §2

DU-145 = assay: as above; assay type: cell-based; conditions: Homo sapiens; 0.01 mM; DU-145, Prostate Cancer; read-out: Percentage growth inhibition (GI %)
Procedure: as §1, §2

EKVX = assay: as above; assay type: cell-based; conditions: Homo sapiens, 0.01 mM, Non-Small Cell Lung Cancer, read-out: Percentage growth inhibition (GI %)
Procedure: as §1, §2

HCC-2998 = assay: as above; assay type: cell-based; conditions: Homo sapiens; 0.01 mM; HCC-2998, Colon Cancer; read-out: Percentage growth inhibition (GI %)
Procedure: as §1, §2

HCT-116 = assay: as above; assay type: cell-based; conditions: Homo sapiens; 0.01 mM; HCT-116, Colon Cancer; read-out: Percentage growth inhibition (GI %)
Procedure: as §1, §2

HCT-15 = assay: as above; assay type: cell-based; conditions: Homo sapiens; 0.01 mM; HCT-15, Colon Cancer; read-out: Percentage growth inhibition (GI %)
Procedure: as §1, §2

HL-60(TB) = assay: as above; assay type: cell-based; conditions: Homo sapiens, 0.01 mM, Leukemia, read-out: Percentage growth inhibition (GI %)
Procedure: as §1, §2

HOP-62 = assay: as above; assay type: cell-based; conditions: Homo sapiens; 0.01 mM; HOP-62, Non-Small Cell Lung Cancer; read-out: Percentage growth inhibition (GI %)
Procedure: as §1, §2

HS 578T = assay: as above; assay type: cell-based; conditions: Homo sapiens, 0.01 mM, Breast Cancer, read-out: Percentage growth inhibition (GI %)
Procedure: as §1, §2

HT29 = assay: as above; assay type: cell-based; conditions: Homo sapiens, HT-29; 0.01 mM; HT29, Colon Cancer; read-out: Percentage growth inhibition (GI %)
Procedure: as §1, §2

IGROV1 = assay: as above; assay type: cell-based; conditions: Homo sapiens, IGROV-1; 0.01 mM; IGROV1, Ovarian Cancer; read-out: Percentage growth inhibition (GI %)
Procedure: as §1, §2

K-562 = assay: as above; assay type: cell-based; conditions: Homo sapiens, K562; 0.01 mM; K-562, Leukemia; read-out: Percentage growth inhibition (GI %)
Procedure: as §1, §2

KM12 = assay: as above; assay type: cell-based; conditions: Homo sapiens; 0.01 mM; KM12, Colon Cancer; read-out: Percentage growth inhibition (GI %)
Procedure: as §1, §2

LOX IMVI = assay: as above; assay type: cell-based; conditions: Homo sapiens, 0.01 mM, Melanoma, read-out: Percentage growth inhibition (GI %)
Procedure: as §1, §2

M14 = assay: as above; assay type: cell-based; conditions: Homo sapiens; 0.01 mM; M14, Melanoma; read-out: Percentage growth inhibition (GI %)
Procedure: as §1, §2

MCF7 = assay: as above; assay type: cell-based; conditions: Homo sapiens; 0.01 mM; MCF7, Breast Cancer; read-out: Percentage growth inhibition (GI %)
Procedure: as §1, §2

MDA-MB-231/ATCC = assay: as above; assay type: cell-based; conditions: Homo sapiens, 0.01 mM, Breast Cancer, read-out: Percentage growth inhibition (GI %)
Procedure: as §1, §2

MDA-MB-435 = assay: as above; assay type: cell-based; conditions: Homo sapiens; 0.01 mM; MDA-MB-435, Melanoma; read-out: Percentage growth inhibition (GI %)
Procedure: as §1, §2

MOLT-4 = assay: as above; assay type: cell-based; conditions: Homo sapiens; 0.01 mM; MOLT-4, Leukemia; read-out: Percentage growth inhibition (GI %)
Procedure: as §1, §2

NCI-H226 = assay: as above; assay type: cell-based; conditions: Homo sapiens; 0.01 mM; NCI-H226, Non-Small Cell Lung Cancer; read-out: Percentage growth inhibition (GI %)
Procedure: as §1, §2

NCI-H23 = assay: as above; assay type: cell-based; conditions: Homo sapiens; 0.01 mM; NCI-H23, Non-Small Cell Lung Cancer; read-out: Percentage growth inhibition (GI %)
Procedure: as §1, §2

NCI-H460 = assay: as above; assay type: cell-based; conditions: Homo sapiens; 0.01 mM; NCI-H460, Non-Small Cell Lung Cancer; read-out: Percentage growth inhibition (GI %)
Procedure: as §1, §2

NCI-H522 = assay: as above; assay type: cell-based; conditions: Homo sapiens; 0.01 mM; NCI-H522, Non-Small Cell Lung Cancer; read-out: Percentage growth inhibition (GI %)
Procedure: as §1, §2

NCI/ADR-RES = assay: as above; assay type: cell-based; conditions: Homo sapiens, 0.01 mM, Ovarian Cancer, read-out: Percentage growth inhibition (GI %)
Procedure: as §1, §2

OVCAR-4 = assay: as above; assay type: cell-based; conditions: Homo sapiens; 0.01 mM; OVCAR-4, Ovarian Cancer; read-out: Percentage growth inhibition (GI %)
Procedure: as §1, §2

OVCAR-5 = assay: as above; assay type: cell-based; conditions: Homo sapiens; 0.01 mM; OVCAR-5, Ovarian Cancer; read-out: Percentage growth inhibition (GI %)
Procedure: as §1, §2

OVCAR-8 = assay: as above; assay type: cell-based; conditions: Homo sapiens; 0.01 mM; OVCAR-8, Ovarian Cancer; read-out: Percentage growth inhibition (GI %)
Procedure: as §1, §2

PC-3 = assay: as above; assay type: cell-based; conditions: Homo sapiens; 0.01 mM; PC-3, Prostate Cancer; read-out: Percentage growth inhibition (GI %)
Procedure: as §1, §2

RPMI-8226 = assay: as above; assay type: cell-based; conditions: Homo sapiens; 0.01 mM; RPMI-8226, Leukemia; read-out: Percentage growth inhibition (GI %)
Procedure: as §1, §2

SF-268 = assay: as above; assay type: cell-based; conditions: Homo sapiens; 0.01 mM; SF-268, CNS Cancer; read-out: Percentage growth inhibition (GI %)
Procedure: as §1, §2

SF-295 = assay: as above; assay type: cell-based; conditions: Homo sapiens; 0.01 mM; SF-295, CNS Cancer; read-out: Percentage growth inhibition (GI %)
Procedure: as §1, §2

SF-539 = assay: as above; assay type: cell-based; conditions: Homo sapiens; 0.01 mM; SF-539, CNS Cancer; read-out: Percentage growth inhibition (GI %)
Procedure: as §1, §2

SK-MEL-5 = assay: as above; assay type: cell-based; conditions: Homo sapiens; 0.01 mM; SK-MEL-5, Melanoma; read-out: Percentage growth inhibition (GI %)
Procedure: as §1, §2

SN12C = assay: as above; assay type: cell-based; conditions: Homo sapiens, 0.01 mM, Renal Cancer, read-out: Percentage growth inhibition (GI %)
Procedure: as §1, §2

SNB-75 = assay: as above; assay type: cell-based; conditions: Homo sapiens; 0.01 mM; SNB-75, CNS Cancer; read-out: Percentage growth inhibition (GI %)
Procedure: as §1, §2

SW-620 = assay: as above; assay type: cell-based; conditions: Homo sapiens; 0.01 mM; SW-620, Colon Cancer; read-out: Percentage growth inhibition (GI %)
Procedure: as §1, §2

T-47D = assay: as above; assay type: cell-based; conditions: Homo sapiens, T47D, 0.01 mM, Breast Cancer, read-out: Percentage growth inhibition (GI %)
Procedure: as §1, §2

U251 = assay: as above; assay type: cell-based; conditions: Homo sapiens, U-251; 0.01 mM; U251, CNS Cancer; read-out: Percentage growth inhibition (GI %)
Procedure: as §1, §2

UACC-257 = assay: as above; assay type: cell-based; conditions: Homo sapiens; 0.01 mM; UACC-257, Melanoma; read-out: Percentage growth inhibition (GI %)
Procedure: as §1, §2

UO-31 = assay: as above; assay type: cell-based; conditions: Homo sapiens; 0.01 mM; UO-31, Renal Cancer; read-out: Percentage growth inhibition (GI %)
Procedure: as §1, §2

## O=C(Cn1c(-c2ccc(O)cc2)nc(-c2ccccc2)c1-c1ccccc1)N/N=C/c1ccc(C(=O)O)cc1 [AE21, 4-((2-(2-(2-(4-hydroxyphenyl)-4,5-diphenyl-1H-imidazol-1-yl)acetyl)hydrazono)methyl)benzoic acid]
A549/ATCC
  inhibition at 10 µM: 64.9%
ACHN
  inhibition at 10 µM: 57.2%
BT-549
  inhibition at 10 µM: 11.9%
CAKI-1
  inhibition at 10 µM: 8.34%
CCRF-CEM
  inhibition at 10 µM: 78.4%
DU-145
  inhibition at 10 µM: 43%
EKVX
  inhibition at 10 µM: 32.1%
HCC-2998
  inhibition at 10 µM: 6.33%
HCT-116
  inhibition at 10 µM: 50.7%
HCT-15
  inhibition at 10 µM: 51.7%
HL-60(TB)
  inhibition at 10 µM: 53.6%
HOP-62
  inhibition at 10 µM: 7.6%
HS 578T
  inhibition at 10 µM: 22.5%
HT29
  inhibition at 10 µM: 55.4%
IGROV1
  inhibition at 10 µM: 4.51%
K-562
  inhibition at 10 µM: 44.7%
KM12
  inhibition at 10 µM: 16.2%
LOX IMVI
  inhibition at 10 µM: 33.4%
M14
  inhibition at 10 µM: 16.5%
MCF7
  inhibition at 10 µM: 81.1%
MDA-MB-231/ATCC
  inhibition at 10 µM: 25.6%
MDA-MB-435
  inhibition at 10 µM: 16.6%
MOLT-4
  inhibition at 10 µM: 70.1%
NCI-H226
  inhibition at 10 µM: 11.4%
NCI-H23
  inhibition at 10 µM: 4.14%
NCI-H460
  inhibition at 10 µM: 82.4%
NCI-H522
  inhibition at 10 µM: 35.3%
NCI/ADR-RES
  inhibition at 10 µM: 2.67%
OVCAR-4
  inhibition at 10 µM: 15%
OVCAR-5
  inhibition at 10 µM: 11.7%
OVCAR-8
  inhibition at 10 µM: 49%
PC-3
  inhibition at 10 µM: 43.2%
RPMI-8226
  inhibition at 10 µM: 21.4%
SF-268
  inhibition at 10 µM: 11.7%
SF-295
  inhibition at 10 µM: 29.4%
SF-539
  inhibition at 10 µM: 3.59%
SK-MEL-5
  inhibition at 10 µM: 8.04%
SN12C
  inhibition at 10 µM: 47.8%
SNB-75
  inhibition at 10 µM: 13.8%
SW-620
  inhibition at 10 µM: 67.6%
T-47D
  inhibition at 10 µM: 22.7%
U251
  inhibition at 10 µM: 48.5%
UACC-257
  inhibition at 10 µM: 2.54%
UO-31
  inhibition at 10 µM: 12.8%
other
  melting point: 220 to 222 °C
